Laboratory results from US20230212122A1, “MITOCHONDRIAL TARGETING COMPOUNDS FOR THE TREATMENT OF ASSOCIATED DISEASES” (The Regents of the University of Michigan, priority 2020, published 2023).

Key:
MIA PaCa-2 cells = experiment: MTT assay, cancer cell growth inhibition (MIA PaCa-2); type: cell-based; settings: Homo sapiens, MIA PaCa-2, 168 h, 7 days of treatment, read-out: MiaPaCa IC50
Description: (§1) Measurement of cancer cell growth inhibition of the compounds of invention Cytotoxicity of the compounds was assessed by MTT assay. In brief, MIA PaCa-2 cells or BxPc3 cells were seeded in 96-well microtitre plates at density of 200 cells/well. After overnight attachment, cells were treated with compounds at indicated concentration. After 7 days of treatment, MTT solution (3 mg/ml, 20 μl) was added to each well and cells were incubated for 3 h at 37° C. After incubation, media from each well was removed and the dark blue formazan crystals formed by live cells were dissolved in DMSO ([…] per well). The absorbance intensity was measured at 570 nm on a microplate reader (Molecular Devices, Sunnyvale, Calif., USA). The half maximal inhibitory concentration (IC50) value were calculated using 4 or 6 dots curve plotted with Cumulative Gaussian equation or Log(inhibitor) vs. response equation in GraphPad Prism.

BxPc3 cells = experiment: MTT assay, cancer cell growth inhibition (BxPC-3); type: cell-based; settings: Homo sapiens, BXPC-3, 168 h, 7 days of treatment
Description: as §1

| SMILES | IC50 (MIA PaCa-2 cells) [nM] | IC50 (BxPc3 cells) [nM] |
| --- | --- | --- |
| CCOC(=O)C1(F)CCCN(S(=O)(=O)c2ccc(S(=O)(=O)N(CC)CC)cc2)C1 (stereo not drawn) [DX3-47, ethyl 1-((4-(N,N-diethylsulfamoyl)phenyl)sulfonyl)-3-fluoropiperidine-3-carboxylate] | 2940 ± 320 | 4920 ± 1940 |
| CCN(CC)S(=O)(=O)c1ccc(S(=O)(=O)N2CCCC(S(=O)(=O)N(C)C)C2)cc1 (stereo not drawn) [DX3-39, 1-((4-(N,N-diethylsulfamoyl)phenyl)sulfonyl)-N,N-dimethylpiperidine-3-sulfonamide] | 5100 ± 1290 | 6300 ± 1440 |
| CCOC(=O)c1cccc(S(=O)(=O)c2ccc(S(=O)(=O)N(CC)CC)cc2)c1 [DX3-3, ethyl 3-((4-(N,N-diethylsulfamoyl)phenyl)sulfonyl)benzoate] | 4120 ± 2440 | 2290 ± 700 |
| CCN(CC)S(=O)(=O)c1ccc(S(=O)(=O)N2CCC[C@@H](c3nc(C)no3)C2)cc1 [DX3-122B, (R)-N,N-diethyl-4-((3-(3-methyl-1,2,4-oxadiazol-5-yl)piperidin-1-yl)sulfonyl)benzenesulfonamide] | 4120 ± 1160 | 2860 ± 3140 |
| CCOC(=O)[C@@H]1CCCN(S(=N)(=O)c2ccc(S(=O)(=O)N(CC)CC)cc2)C1 (stereo partly drawn) [DX2-225, ethyl (3R)-1-(4-(N,N-diethylsulfamoyl)phenylsulfonimidoyl)piperidine-3-carboxylate] | 12100 ± 3850 | 13400 ± 4580 |
| CCOC(=O)[C@H]1CCCN(S(=O)(=O)c2ccc(S(=O)(=O)N(CC)CC)cc2)C1 [DX2-202, ethyl (S)-1-((4-(N,N-diethylsulfamoyl)phenyl)sulfonyl)piperidine-3-carboxylate] | 6080 ± 760 | 6800 ± 2100 |
| CCN(CC)S(=O)(=O)c1ccc(S(=O)(=O)N2CCCC(F)C2)cc1 (stereo not drawn) [DX3-49B, N,N-diethyl-4-((3-fluoropiperidin-1-yl)sulfonyl)benzenesulfonamide] | 3650 ± 1680 | 8270 ± 2520 |
| CCOC(=O)[C@@H]1CCCN(S(=O)(=O)c2ccc(S(=O)(=O)N3CCCCC3)cc2)C1 [DX2-265, ethyl (R)-1-((4-(piperidin-1-ylsulfonyl)phenyl)sulfonyl)piperidine-3-carboxylate] | 2870 ± 490 | 3290 ± 740 |
| CCOC(=O)[C@@H]1CCCN(S(=O)(=O)c2ccc(Oc3ccc(S(=O)(=O)N(CC)CC)cc3)cc2)C1 [DX2-230, ethyl (R)-1-((4-(4-(N,N-diethylsulfamoyl)phenoxy)phenyl)sulfonyl)piperidine-3-carboxylate] | 3920 ± 890 | 3880 ± 570 |
| CCOC(=O)C12CC(CN(S(=O)(=O)c3ccc(S(=O)(=O)N(CC)CC)cc3)C1)C2 [DX3-115, ethyl 3-((4-(N,N-diethylsulfamoyl)phenyl)sulfonyl)-3-azabicyclo[3.1.1]heptane-1-carboxylate] | 1040 ± 450 | 1230 ± 790 |
| CCOC(=O)C1CN(S(=O)(=O)c2ccc(S(=O)(=O)N(CC)CC)cc2)CCN1 (stereo not drawn) [DX3-44B, ethyl 4-((4-(N,N-diethylsulfamoyl)phenyl)sulfonyl)piperazine-2-carboxylate] | 4700 ± 1920 | 6770 ± 520 |

More lines, now with the values ahead:

| IC50 (MIA PaCa-2 cells) [nM] | IC50 (BxPc3 cells) [nM] | SMILES |
| --- | --- | --- |
| 430 ± 180 | 1100 ± 160 | CCN(CC)S(=O)(=O)c1ccc(S(=O)(=O)N2CCC[C@@H](C(=O)N3CC4(CN(C(=O)OC(C)(C)C)C4)C3)C2)cc1 [DX3-120, tert-butyl (R)-6-(1-((4-(N,N-diethylsulfamoyl)phenyl)sulfonyl)piperidine-3-carbonyl)-2,6-diazaspiro[3.3]heptane-2-carboxylate] |
| 1300 ± 450 | 1370 ± 520 | CCOC(=O)[C@@H]1CCCN(S(=O)(=O)c2ccc(S(=O)(=O)N(CC)CC)cn2)C1 [DX2-293, ethyl (R)-1-((5-(N,N-diethylsulfamoyl)pyridin-2-yl)sulfonyl)piperidine-3-carboxylate] |
| 350 ± 20 |  | CCN(CC)S(=O)(=O)c1ccc(S(=O)(=O)N2CCC[C@@H](C(=O)N3CCOCC3)C2)cc1 [DX3-121B, (R)-N,N-diethyl-4-((3-(morpholine-4-carbonyl)piperidin-1-yl)sulfonyl)benzenesulfonamide] |
| 130 ± 40 | 330 ± 120 | CCN(CC)S(=O)(=O)c1ccc(S(=O)(=O)N2CCC[C@@H](C(=O)N[C@H]3CCN(C(=O)OC(C)(C)C)C3)C2)cc1 [DX3-119, tert-butyl (S)-3-((R)-1-((4-(N,N-diethylsulfamoyl)phenyl)sulfonyl)piperidine-3-carboxamido)pyrrolidine-1-carboxylate] |
| 2340 ± 1010 | 13800 ± 3580 | CCN(CC)S(=O)(=O)c1ccc(S(=O)(=O)N2CCC[C@@H](C(=O)NC3COC3)C2)cc1 [DX2-242, (R)-1-((4-(N,N-diethylsulfamoyl)phenyl)sulfonyl)-N-(oxetan-3-yl)piperidine-3-carboxamide] |
| 280 | 620 | CCOC(=O)[C@@H]1CCCN(S(=O)(=O)c2ccc(C(=O)N(CC)CC)cc2)C1 [DX3-78B, ethyl (R)-1-((4-(diethylcarbamoyl)phenyl)sulfonyl)piperidine-3-carboxylate] |
| 2550 ± 150 | 3590 ± 1390 | CCOC(=O)[C@@H]1CCCN(S(=O)(=O)c2ccc(S(=N)(=O)N(CC)CC)cc2)C1 (stereo partly drawn) [DX3-90, ethyl (3R)-1-((4-(N,N-diethylsulfamidimidoyl)phenyl)sulfonyl)piperidine-3-carboxylate] |
| 1350 ± 590 | 3290 ± 60 | CCOC(=O)[C@@H]1C[C@H](O)CN(S(=O)(=O)c2ccc(S(=O)(=O)N(CC)CC)cc2)C1 (relative stereo) [DX3-14B-P1, (cis)-ethyl 1-((4-(N,N-diethylsulfamoyl)phenyl)sulfonyl)-5-hydroxypiperidine-3-carboxylate] |
| 750 ± 80 | 2270 ± 610 | CCN(CC)S(=O)(=O)c1ccc(S(=O)(=O)N2CCC[C@@H](C(=O)N[C@@H]3CCOC3)C2)cc1 [DX3-107B, (R)-1-((4-(N,N-diethylsulfamoyl)phenyl)sulfonyl)-N-((R)-tetrahydrofuran-3-yl)piperidine-3-carboxamide] |
| 930 ± 360 | 1610 ± 370 | CCOC(=O)[C@@H]1CCCN(S(=O)(=O)c2ccc(S(=O)(=O)N(CC)CC)c(F)c2)C1 [DX2-275, ethyl (R)-1-((4-(N,N-diethylsulfamoyl)-3-fluorophenyl)sulfonyl)piperidine-3-carboxylate] |
| 940 | 3720 | CCN(CC)S(=O)(=O)c1ccc(S(=O)(=O)N2CCC[C@@H](C(=O)N[C@@H]3CCN(C(=O)c4ccccc4)C3)C2)cc1 [DX3-125, (R)-N-((R)-1-benzoylpyrrolidin-3-yl)-1-((4-(N,N-diethylsulfamoyl)phenyl)sulfonyl)piperidine-3-carboxamide] |
| 300 ± 130 | 350 ± 60 | CCN(CC)S(=O)(=O)c1ccc(S(=O)(=O)N2CCC[C@@H](C(=O)OC3CC3)C2)cc1 [DX2-263, cyclopropyl (R)-1-((4-(N,N-diethylsulfamoyl)phenyl)sulfonyl)piperidine-3-carboxylate] |
